In ChEMBL document CHEMBL6153110, “Peptide Double-Stapling and Arginine N-Glycosylation Triggered the Development of Therapeutic Antimicrobial Peptides Capable of Killing Drug-Resistant Bacteria in Mice” (J Med Chem, 2025):
Values after ≈ are worked out from the molar mass of the structure shown. Active and inactive are the calls of the source. The rule behind the calls is not given here. Positions of bridges follow the written chain, without caps; N, C: chain ends. Non-standard residues stand in square brackets, D forms with d. Residues, ends and D or L forms follow the SMILES beside them. Arg(Nω-βLac) = N=C(NCCC[C@H](N)C(=O)O)N[C@@H]1O[C@H](CO)[C@@H](O[C@@H]2O[C@H](CO)[C@H](O)[C@H](O)[C@H]2O)[C@H](O)[C@H]1O; S5 = C=CCCC[C@](C)(N)C(=O)O

Legend:
[1] = test system: Staphylococcus aureus; assay: Antimicrobial activity against methicillin-resistant Staphylococcus aureus ATCC 43300 assessed as growth inhibition measured after 8 hrs incubation by standard broth dilution assay; format: functional
[2] = Hemolytic activity in BALB/c mouse red blood cells assessed as hemolysis incubated for 1 hrs; format: toxicity, cell-based, Erythrocyte; conditions: read-out: HD50
[3] = test system: Cell membrane; assay: Binding affinity to Klebsiella pneumoniae ATCC 13883 cell membrane treated with FITC labelled peptides at MIC measured after 1.5 hr by CLSM imaging analysis; format: subcellular
[4] = test system: Cell membrane; assay: Binding affinity to methicillin-resistant Staphylococcus aureus ATCC 43300 cell membrane treated with FITC labelled peptides at MIC measured after 1.5 hr by CLSM imaging analysis; format: subcellular
[5] = test system: Cell membrane; assay: Induction of cell membrane damage in methicillin-resistant Staphylococcus aureus ATCC 43300 assessed as increase in red fluorescence at MIC measured after 1 hr incubation by PI based assay; format: subcellular
[6] = test system: Cell membrane; assay: Induction of cell membrane damage in methicillin-resistant Staphylococcus aureus ATCC 43300 assessed as increase in green fluorescence at MIC measured after 1 hr incubation by SYTO9 confocal microscopy; format: subcellular
[7] = test system: Cell membrane; assay: Induction of cell membrane damage in Klebsiella pneumoniae ATCC 13883 assessed as increase in red fluorescence at MIC measured after 1 hr incubation by PI based flow cytometry; format: subcellular
[8] = test system: Cell membrane; assay: Induction of cell membrane damage in Klebsiella pneumoniae ATCC 13883 assessed as significant plasma membrane rupture, cytosolic membrane and outer membrane separation, and cytoplasmic leakage at MIC measured after 1 hr incubation by Transmission electron microscopy; format: subcellular
[9] = test system: Cell membrane; assay: Induction of cell membrane damage in methicillin-resistant Staphylococcus aureus ATCC 43300 assessed as significant plasma membrane rupture, […], and cytoplasmic leakage at MIC measured after 1 hr incubation by Transmission electron microscopy; format: subcellular
[10] = test system: Klebsiella pneumoniae; assay: Antibiofilm activity in Klebsiella pneumoniae ATCC 13883 assessed as prevention of biofilm formation at 0.5 to 4 times of MIC measured after 24 hrs by crystal violet staining based assay; format: functional, organism-based
[11] = test system: Klebsiella pneumoniae; assay: Antibacterial activity against Klebsiella pneumoniae ATCC 13883 assessed as reduction in bacterial count at 4.6 ug/ml in bio-film adjusted BM2 medium; format: functional, organism-based; conditions: dose 4.6 µg/ml
[12] = Toxicity in mouse skin assessed as abscesses and visual lesions at 40 mg/kg, sc by histological analysis; format: organism-based; conditions: in vivo
[13] = test system: Klebsiella pneumoniae; assay: In vivo antibacterial activity against Klebsiella pneumoniae ATCC 13883 induced bacterial pneumonia mouse model assessed as increase in survival of mouse at 1 mg/kg, injected into trachea after 24 hrs of infection measured after 3 to 7 days; format: functional, organism-based
[14] = test system: Klebsiella pneumoniae; assay: In vivo antibacterial activity against Klebsiella pneumoniae ATCC 13883 induced bacterial pneumonia mouse model assessed as reduction in bacterial infection induced inflammatory response in lungs by measuring large number of alveoli at 4 mg/kg, injected into trachea after 24 hrs of infection measured after 3 to 7 days by H and E staining based assay; format: functional, organism-based
[15] = test system: Klebsiella pneumoniae; assay: In vivo antibacterial activity against Klebsiella pneumoniae ATCC 13883 induced bacterial pneumonia mouse model assessed as reduction in bacterial infection induced IL-1beta level in lung tissue at 4 mg/kg, injected into trachea after 24 hrs of infection measured after 3 to 7 days; format: functional, organism-based
[16] = test system: Klebsiella pneumoniae; assay: In vivo antibacterial activity against Klebsiella pneumoniae ATCC 13883 induced bacterial pneumonia mouse model assessed as reduction in bacterial infection induced TNF-alpha level in lung tissue at 4 mg/kg, injected into trachea after 24 hrs of infection measured after 3 to 7 days; format: functional, organism-based

In the case of CC(=O)N[C@@H](CCCCN)C(=O)N[C@@H](CCCCN)C(=O)N[C@@H](CCCNC(=N)N)C(=O)N[C@H](C(=O)N[C@@H](CCCCN)C(=O)N[C@@H](CCCCN)C(=O)N[C@@H](CCCNC(=N)N)C(=O)N[C@@]1(C)CCC/C=C\CCC[C@@](C)(C(=O)N[C@@H](CCCCN)C(=O)N[C@@]2(C)CCC/C=C\CCC[C@@](C)(C(=O)N[C@@H](CC(C)C)C(=O)N[C@@H](CCCCN)C(=O)N[C@@H](CCCCN)C(=O)N3CCC[C@H]3C(=O)N[C@H](C(=O)N[C@@H](CCCNC(=N)N[C@@H]3O[C@H](CO)[C@@H](O[C@@H]4O[C@H](CO)[C@H](O)[C@H](O)[C@H]4O)[C@H](O)[C@H]3O)C(N)=O)C(C)C)NC(=O)[C@H](CCCNC(=N)N)NC(=O)[C@H](Cc3c[nH]c4ccccc34)NC(=O)[C@H](Cc3ccc(O)cc3)NC2=O)NC(=O)[C@H](CC(C)C)NC(=O)[C@H](CCCCN)NC(=O)[C@H](Cc2ccccc2)NC1=O)C(C)C (Ac-KKRVKKR[S5]FKL[S5]K[S5]YWR[S5]LKKPV[Arg(Nω-βLac)]-NH2; staple (Z) 8-12, 14-18), the MIC [1] is reported as 1.1 µg/mL (≈ 0.31 µM), the HC50 at 1 h [2] is reported as 87.6 µg/mL and the Activity [3] is reported as “Active; Compound Exhibited Brighter Red”. For the same compound, the Activity [4] was “Active; Compound Exhibited Brighter Red”, the Activity [5] was “Active” and the Activity [6] was “Active”. The Activity [7] was “Active”, the Activity [8] was “Active” and the Activity [9] was “Active”. The Activity [10] was “Dose-dependent-effect”, the Activity [11] was “inactive” and the Activity [12] was “Non-toxic”. For the same compound, the Activity [13] was “Active”, the Activity [14] was “Active” and the Activity [15] was “Active”. The Activity [16] was “Active”.
